{"source": "Sander's compilation of Henry's law constants (doi:10.1016/j.chroma.2004.12.027)", "experiment": "Henry solubility constant Hcp at 298.15 K (mol/(m3 Pa))", "conditions": "reference: Diaz et al. (2005)", "data": [{"smiles": "COc1c(Br)cc(Br)cc1Br", "note": "[1,3,5-tribromo-2-methoxybenzene]", "values": [{"measurement": "Henry solubility constant Hcp", "result": 0.019}]}, {"smiles": "COc1c(Br)ccc(Br)c1Br", "note": "[1,3,4-tribromo-2-methoxybenzene]", "values": [{"measurement": "Henry solubility constant Hcp", "result": 0.0052}]}, {"smiles": "COc1c(Cl)ccc(Br)c1Cl", "note": "[3-bromo-2,6-dichloro-1-methoxybenzene]", "values": [{"measurement": "Henry solubility constant Hcp", "result": 0.011}]}, {"smiles": "COc1c(Cl)cc(Cl)cc1Cl", "note": "[1,3,5-trichloro-2-methoxybenzene]", "values": [{"measurement": "Henry solubility constant Hcp", "result": 0.0044}]}, {"smiles": "COc1c(Cl)ccc(Cl)c1Br", "note": "[6-bromo-2,5-dichloro-1-methoxybenzene]", "values": [{"measurement": "Henry solubility constant Hcp", "result": 0.0077}]}, {"smiles": "COc1c(Br)cc(Cl)cc1Br", "note": "[2,6-dibromo-4-chloro-1-methoxybenzene]", "values": [{"measurement": "Henry solubility constant Hcp", "result": 0.02}]}, {"smiles": "COc1c(Cl)cc(Cl)cc1Br", "note": "[2-bromo-4,6-dichloro-1-methoxybenzene]", "values": [{"measurement": "Henry solubility constant Hcp", "result": 0.0082}]}, {"smiles": "COc1c(Cl)cc(Br)cc1Cl", "note": "[4-bromo-2,6-dichloro-1-methoxybenzene]", "values": [{"measurement": "Henry solubility constant Hcp", "result": 0.012}]}, {"smiles": "COc1c(Cl)ccc(Cl)c1Cl", "note": "[1,2,4-trichloro-3-methoxybenzene]", "values": [{"measurement": "Henry solubility constant Hcp", "result": 0.011}]}, {"smiles": "COc1c(Br)ccc(Cl)c1Br", "note": "[2,6-dibromo-3-chloro-1-methoxybenzene]", "values": [{"measurement": "Henry solubility constant Hcp", "result": 0.0074}]}]}
